The values that follow come from BindingDB's records for doi:10.1021/ml2001455 (2011).

A value given as a limit tells only on which side of the number the result lay.

For assay [1], the target named is T1, Mitogen-activated protein kinase 14 (Homo sapiens, UniProt Q16539). Description: Inhibition of p38alpha in human PBMC assessed as inhibition of LPS-induced TNFalpha production after 16 to 18 hrs by ELISA.
Assay [2] concerns the target T1, Mitogen-activated protein kinase 14. Description: Inhibition of p38alpha kinase using KRELVEPLTPSGEAPNQALLR as substrate for 20 mins by lactate dehydrogenase-coupled spectrophotometric assay.
Assay [3] has the same target. Description: Inhibition of p38alpha in human PBMC assessed as inhibition of LPS-induced IL1beta production after 16 to 18 hrs by ELISA.

T1 sequence (Q16539 whole entry): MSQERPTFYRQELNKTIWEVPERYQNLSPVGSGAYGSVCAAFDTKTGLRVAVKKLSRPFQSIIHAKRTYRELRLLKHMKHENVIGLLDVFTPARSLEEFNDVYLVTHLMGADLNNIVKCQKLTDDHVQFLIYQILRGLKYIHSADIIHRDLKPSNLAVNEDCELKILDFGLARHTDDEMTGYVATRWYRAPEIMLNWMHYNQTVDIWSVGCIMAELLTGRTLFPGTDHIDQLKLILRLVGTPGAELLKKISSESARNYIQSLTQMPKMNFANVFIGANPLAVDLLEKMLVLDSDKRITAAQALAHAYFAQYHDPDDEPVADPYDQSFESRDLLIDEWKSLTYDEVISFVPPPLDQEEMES

Turning to `COc1ccccc1-c1c(=O)ncn2nc(Sc3ccccc3)ccc12`, the IC50 in assay [1] was greater than 20 µM.
Take `COc1ccc(-c2c(=O)ncn3nc(Sc4ccccc4)ccc23)cc1`: the IC50 in assay [2] and in assay [1] was greater than 20 µM in each case.
On to `O=c1ncn2nc(Sc3ccccc3)ccc2c1-c1ccc(Cl)c(Cl)c1`, for which the IC50 in assay [2], in assay [1] and in assay [3] was greater than 20 µM throughout.
